Seven compounds from patent publication US10301306B2, “Substituted dihydro-1H-pyrrolo[3,2-c]pyridin-4(5H)-ones as RIPK3 inhibitors” (BRISTOL-MYERS SQUIBB COMPANY, priority 2014, dated 2019) can be followed below.

Structures are written as SMILES. pIC50: −log10 of the molar value.

Chain of RIPK3 (Q9Y572 whole entry, species assumed): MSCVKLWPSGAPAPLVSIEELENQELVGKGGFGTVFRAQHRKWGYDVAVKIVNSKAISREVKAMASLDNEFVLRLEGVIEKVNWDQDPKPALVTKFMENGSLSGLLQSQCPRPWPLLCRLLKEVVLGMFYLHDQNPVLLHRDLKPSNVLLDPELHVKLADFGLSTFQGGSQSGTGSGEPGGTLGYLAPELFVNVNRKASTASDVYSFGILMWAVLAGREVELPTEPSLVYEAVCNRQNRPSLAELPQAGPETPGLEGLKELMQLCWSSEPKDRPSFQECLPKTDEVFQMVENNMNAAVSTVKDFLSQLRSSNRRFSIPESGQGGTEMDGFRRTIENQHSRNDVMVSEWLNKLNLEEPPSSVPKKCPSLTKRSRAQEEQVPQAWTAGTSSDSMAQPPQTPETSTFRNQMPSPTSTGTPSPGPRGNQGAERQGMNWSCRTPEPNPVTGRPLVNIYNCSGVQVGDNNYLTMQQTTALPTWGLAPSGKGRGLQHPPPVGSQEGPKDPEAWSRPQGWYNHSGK

This assay concerns the target RIPK3 (Homo sapiens (Human), UniProt Q9Y572). Briefly: RIPK3 HTRF Kinase Assay. Format: binding. The following applies: RIPK3 1 nM; HTRF probe 23 nM; 60 min at room temperature; read-out: IC50 for Inhibition of RIPK3. A general note: TR-FRET usually uses a lanthanide donor and a delayed reading to cut background.
A word on the pIC50: it is the negative decadic logarithm of the IC50, by convention in mol/L. As to `CCC(=O)Nc1cccc(-c2c3c(n(Cc4cc(C)nn4C)c2-c2ccncc2)CCNC3=O)c1` [Example 179], the pIC50 is 4.82 to 7.00. In the case of `Cc1cc(Cn2c3c(c(-c4cccc(CCc5ccccc5)c4)c2-c2ccncc2)C(=O)NCC3)n(C)n1` [Example 180] it was 4.82 to 7.00; in that of `Cc1cc(Cn2c3c(c(-c4cccc(CCC5CCCCC5)c4)c2-c2ccncc2)C(=O)NCC3)n(C)n1` [Example 181], 4.82 to 7.00. The same measure for `Cc1cc(Cn2c3c(c(-c4ccc(F)cc4)c2-c2ccncc2F)C(=O)NCC3)n(C)n1` [Example 182]: 7.00 to 7.51. Regarding `COc1cnccc1-c1c(-c2ccc(F)cc2)c2c(n1Cc1cc(C)nn1C)CCNC2=O` [Example 183], the negative-log IC50 (pIC50) was above 7.52. In the case of `Cc1cc(Cn2c3c(c(-c4ccc(F)cc4)c2-c2cn[nH]c2)C(=O)NCC3)n(C)n1` [Example 184], the pIC50 was 4.82 to 7.00.

For the compound `Cc1cc(Cn2c3c(c(-c4cccc(NC(=O)OC(C)(C)C)c4)c2-c2ccnc(NC(=O)C4CC4)c2)C(=O)NCC3)n(C)n1` [Example 185, tert-Butyl (3-(2-(2-(cyclopropanecarboxamido)pyridin-4-yl)-1-((1,3-dimethyl-1H-pyrazol-5-yl)methyl)-4-oxo-4,5,6,7-tetrahydro-1H-pyrrolo[3,2-c]pyridin-3-yl)phenyl)carbamate], the negative logarithm of the IC50 (pIC50) was 4.82 to 7.00.
